Assay results from US20230047208A1, “RNA Splicing Modulation” (The General Hospital Corporation, priority 2020, published 2023).

Test system: wildtype (WT) human fibroblast cell lines
Experiment: Transcriptome-wide splicing by RNA sequencing (RNASeq), exon triplet PSI change;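 on Effect: six WT fibroblast lines treated seven days versus DMSO vehicle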;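 on T-PSI: T-PSI is average treated PSI after seven days of treatment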
Type: cell-based
Parameters: key to Effect: Exclusion; Inclusion; Unchanged
Text: FIG. 2A provides a representation of an exon triplet. Exon U is upstream of Exon X, which is upstream of Exon D. R1, R2 and R3 represent RNA sequencing (RNASeq) reads spanning the regions between two adjacent exons. UI1, I1X, XI2 and I2D are four regions flanking the four splice sites of the exon-triplet. Each flanking region consists of 25 exonic base pairs and 75 intronic base pairs.
FIG. 2B provides a volcano plot showing the ψ (PSI: Percent Spliced-In) changes in splicing after treatment with Compound (I). Each dot represents one of the 161,097 expressed exon triplets in human fibroblasts. The x axis represents the ψ changes after treatment and the y axis represents the False Discovery Rate (FDR) (log 10 transformed). […] The horizontal dashed line indicates an FDR of 0.1. The dots on the right side of the right vertical dashed line and above the horizontal dashed line represent the exon-triplets with an increase for Exon X inclusion (Δψ≥0.1 and FDR<0.1) while the dots on left side of the left vertical dashed line and above the horizontal dashed line represent an increase for Exon X exclusion (Δψ≤−0.1 and FDR<0.1). Black dots in-between the two vertical dashed lines represent exon-triplets unchanged from the treatment.
In some aspects, analysis is performed on data derived from the assay to measure the magnitude of splicing to determine the amount of exons spliced into an mRNA transcript that is produced in the presence of Compound (I) relative to the amount in the absence of Compound (I) or presence of a negative control. In a preferred aspect, the method utilized is calculation of change in Percent Spliced In (ΔPSI). […] The ΔPSI value is derived from the formula: […]
The values for “a” and “b” represent the number of reads supporting the probability for potential inclusion or exclusion of an exon in an RNA transcript. The “a” value is derived from the number of reads within an exon triplet covering, in 5′ to 3′ order: the last few bases (>1 nucleotide) of an upstream exon operably linked to the first few bases (>1 nucleotide) of a middle exon. The “b” value is derived from the number of reads within an exon triplet covering, in 5′ to 3′ order: the last few bases (>1 nucleotide) of the middle exon operably linked to the first few bases (>1 nucleotide) of a downstream exon. The number of reads will indicate whether the splice junction of a middle exon has been identified as potentially having a CNN Motif(s) by the CNN Model described herein, wherein the inclusion or exclusion of the middle exon may be modulated in the presence of Compound (I) to produce one or more mature RNA isoforms from the gene transcript. The value for “c” represents the number of reads supporting the exclusion of the middle exon.
The effect on splicing modulation and corresponding splice differences toward exon inclusion or exclusion was determined by counting the RNASeq reads covering two splice junctions of exon triplets (three consecutive exons: Exon U, Exon X, Exon D) and the corresponding intervening introns, then comparing the change in Percent Spliced In (ΔPSI or Δψ) of the middle exon (Exon X) after treatment (as shown in FIG. 2A)^52,53. 934 exon triplets were identified showing differential middle exon inclusion or exclusion in response to Compound (I) treatment. Of these, 254 were exon inclusion events (Δψ≥0.1 and FDR<0.1) and 680 were exon exclusion events (Δψ≤−0.1 and FDR<0.1) (as shown in FIG. 2B). […] The splicing results were evaluated by RT-PCR in independent replicate experiments, confirming all the calculated Δψ values. […]

[1] = NSMCE2 Exon 126168242-126168340

## Clc1nc(NCc2ccncc2)c2cc[nH]c2n1 [Compound (I), 2-chloro-N-(pyridin-4-ylmethyl)-7H-pyrrolo[2,3-d]pyrimidin-4-amine]
NIN Exon 51233025-51233114
  Effect: Unc
  T-PSI: 0.896
  ΔPSI: 0.008
NIPA2 Exon 23027801-23027922
  Effect: Exc
  T-PSI: 0.326
  ΔPSI: −0.185
NIPA2 Exon 23033278-23033413
  Effect: Exc
  T-PSI: 0.608
  ΔPSI: −0.163
NLRC5 Exon 57110731-57110814
  Effect: Exc
  T-PSI: 0.857
  ΔPSI: −0.122
NLRX1 Exon 119043065-119043134
  Effect: Exc
  T-PSI: 0.742
  ΔPSI: −0.143
NPEPPS Exon 45654447-45654526
  Effect: Inc
  T-PSI: 0.172
  ΔPSI: 0.135
NPR2 Exon 35802729-35802800
  Effect: Exc
  T-PSI: 0.878
  ΔPSI: −0.101
NPRL3 Exon 167300-167374
  Effect: Exc
  T-PSI: 0.697
  ΔPSI: −0.155
NPRL3 Exon 174936-175072
  Effect: Unc
  T-PSI: 0.206
  ΔPSI: 0.006
NPRL3 Exon 180521-180590
  Effect: Unc
  T-PSI: 0.858
  ΔPSI: 0.003
NRG1 Exon 32620736-32620877
  Effect: Inc
  T-PSI: 0.510
  ΔPSI: 0.182
NSFL1C Exon 1436359-1436364
  Effect: Exc
  T-PSI: 0.345
  ΔPSI: −0.153
NSFL1C Exon 1436359-1436515
  Effect: Exc
  T-PSI: 0.214
  ΔPSI: −0.123
[1]
  Effect: Inc
  T-PSI: 0.162
  ΔPSI: 0.133
NSUN4 Exon 46812593-46812747
  Effect: Exc
  T-PSI: 0.817
  ΔPSI: −0.124
NT5C2 Exon 104871502-104871562
  Effect: Exc
  T-PSI: 0.351
  ΔPSI: −0.306
NTMT1 Exon 132394929-132395080
  Effect: Unc
  T-PSI: 0.828
  ΔPSI: −0.009
NTPCR Exon 233091303-233091465
  Effect: Unc
  T-PSI: 0.785
  ΔPSI: 0.009
NUB1 Exon 151046159-151046326
  Effect: Exc
  T-PSI: 0.858
  ΔPSI: −0.126
NUBP2 Exon 1836758-1836956
  Effect: Unc
  T-PSI: 0.575
  ΔPSI: 0.006
NUMB Exon 73833605-73833689
  Effect: Unc
  T-PSI: 0.697
  ΔPSI: −0.003
NUP43 Exon 150059779-150059914
  Effect: Exc
  T-PSI: 0.865
  ΔPSI: −0.118
NUP62 Exon 50430951-50431105
  Effect: Inc
  T-PSI: 0.787
  ΔPSI: 0.124
NUP98 Exon 3707294-3707424
  Effect: Unc
  T-PSI: 0.862
  ΔPSI: −0.009
NUPL2 Exon 23235458-23235534
  Effect: Exc
  T-PSI: 0.602
  ΔPSI: −0.244
NUTF2 Exon 67881181-67881359
  Effect: Unc
